In PubChem BioAssay (NCI):
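Following 48 hours of exposure in 96-well plates, responses at five concentrations were used to interpolate endpoints linearly. Abbreviation: GI50, concentration required for 50% inhibition of growth. TGI denotes the concentration required for complete inhibition of growth.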

Legend:
Test in all cases: NCI tumour cell line growth inhibition, 48 h
BT-549 breast = tested on: BT-549 breast
UO-31 renal = tested on: UO-31 renal
HT29 colon = tested on: HT29 colon
PC-3 prostate = tested on: PC-3 prostate
RPMI-8226 leukemia = tested on: RPMI-8226 leukemia
NCI-H226 lung = tested on: NCI-H226 lung
MDA-MB-231 breast = tested on: MDA-MB-231 breast
EKVX NSCLC = tested on: EKVX NSCLC
HCT-15 colon = tested on: HCT-15 colon
SR leukemia = tested on: SR leukemia

Compound	TGI (BT-549 breast) [µM]	TGI (UO-31 renal) [µM]	TGI (HT29 colon) [µM]	TGI (PC-3 prostate) [µM]	TGI (RPMI-8226 leukemia) [µM]	TGI (NCI-H226 lung) [µM]	TGI (MDA-MB-231 breast) [µM]	TGI (EKVX NSCLC) [µM]	TGI (HCT-15 colon) [µM]	GI50 (UO-31 renal) [µM]	GI50 (RPMI-8226 leukemia) [µM]	GI50 (NCI-H226 lung) [µM]	GI50 (EKVX NSCLC) [µM]	GI50 (SR leukemia) [µM]	TGI (SR leukemia) [µM]	GI50 (HCT-15 colon) [µM]	GI50 (BT-549 breast) [µM]	GI50 (HT29 colon) [µM]	GI50 (PC-3 prostate) [µM]	GI50 (MDA-MB-231 breast) [µM]
Cc1cc2oc(=O)c(Cl)c(Cl)c2c(C)c1Cl	39	25.3	22.8	23.6	6	33.2	28.7	34.5	14.3											
CC(N)CN.CC(N)CN.[Cl-].[O]=[Os+2]=[O] (centres undefined)		> 100			> 100	> 100		> 100	> 100	93.3	40.3	> 100	> 100	28.6	> 100	> 100				
COC(=O)[C@H]1CC(=O)C=C2CCCC21 (some centres undefined)		> 100	> 100		> 100			> 100	> 100											
CC1=C(C(=O)Nc2cccc(C(F)(F)F)c2)C(c2ccccc2F)C(C(=O)Nc2cccc(C(F)(F)F)c2)=C(C)N1		17.3	11.5		10.1	18.4		17.5												
CC(=O)Nc1cc(C(c2ccccc2)c2ccccc2)cc(C(c2ccccc2)c2ccccc2)c1C	> 100	> 100	> 100	> 100	7.67	> 100	> 100	> 100	> 100	3.54	1.88	6.8	3.23			7.12	8.2	8.26	4.13	4.21
Cc1ccc(C)c(NC(=O)C(=O)CC(=O)c2cccc3ccccc23)c1		> 100	> 100		> 100	> 100		> 100	> 100						> 100					
CC(=O)C(CN(C)Cc1ccccc1)C(c1ccccc1)c1c(O)c2ccccc2oc1=O (centres undefined)		83.7	> 100		> 100	99.5		> 100	> 100						> 100					
Cc1cc(C(=O)N2CCN(C)CC2)c2c(=O)n(-c3ccccc3)c(=O)n(CC(O)CN3CCN(c4ncccn4)CC3)c2n1 (centres undefined)		> 100	> 100		> 100	> 100	> 100	> 100	> 100	> 100	> 100	> 100	> 100	9.01	> 100	> 100		> 100		> 100
COc1ccc2oc(-c3cc4cc(OC)ccc4o3)cc2c1		> 100			> 100			> 100	> 100											
COc1ccc(C2c3cc4c(c(OC)c3CC3OCC(=O)C32)OCO4)cc1OC (centres undefined)	> 100	48.4	0.104	> 100		> 100	0.123	> 100	> 100	< 0.01		< 0.01	< 0.01		< 0.01	< 0.01	< 0.01		< 0.01	< 0.01
O=C(O)CC1C(=O)OC2C3COC(=O)c4cc(O)c(O)c(O)c4-c4c(cc(O)c(O)c4O)C(=O)OC2C(OC(=O)c2cc(O)c(O)c4c2C1C(O)C(=O)O4)C(OC(=O)c1cc(O)c(O)c(O)c1)O3 (centres undefined)		> 100	26.4	> 100	> 100	> 100	78.6	66.8	> 100						75.8					
O=C(O)/C(=C/c1ccccc1[N+](=O)[O-])c1cccs1		> 100	> 100		> 100	> 100		> 100	> 100						> 100					
Cc1ccc(C2NC(=S)N3C(c4ccc(C)cc4)NC(=S)N23)cc1 (centres undefined)	23.7	28.2	10.2	16.9		29	24	25.3	15.3	12		6.85	7.93	0.491	3.55	3.7	10.3	2.58	3.81	9.16
CC(=O)n1cc(CC(C)O)c(=O)[nH]c1=O (centres undefined)		> 100	> 100		> 100	> 100		> 100	> 100						> 100					
Cc1ccc(NC(C(=O)c2ccccc2)c2ccccc2)cc1 (centres undefined)		35.8		52.4	14.6	> 100	> 100	6	> 100	13.8	2.71	18	1	4.26	52.9	27.7			2.78	13
CC1(C)C(=O)CCC(=O)C(C)(C)C2=CC=C(O2)C(C)(C)C(=O)CCC(=O)C(C)(C)C2=CC=C1O2			> 100			> 100		> 100	> 100						> 100					
CC(C)(C)c1cc(Oc2ccc(C#N)c(C#N)c2)cc(C(C)(C)C)c1		> 100	> 100		> 100	> 100		> 100	> 100						42.3					
O=[N+]([O-])c1ccc(N/N=C/c2ccccc2O)nc1	> 100	> 100	> 100	> 100	> 100	> 100	> 100	> 100	> 100	0.623	0.86	4.6	3.58			0.639	6.08	0.975	4.3	1.46
C/C(=C\CCc1ccsc1)CC/C=C(\C)CCCN1CCN(CCO)CC1	10.9	20.5	5.01		4.57	24.3	4.18		6.31	4.95	1.92	5.68		1.93	4.71	2.42	2.78	2.04		1.6
NC(=O)c1ccccc1NC(=O)C(=O)Nc1n[nH]c(N)n1		> 100	> 100		> 100	> 100		> 100	> 100						> 100					
